Where a SMILES comes first, the peptide text is derived from it. Bridges are numbered along the chain shown (N, C = ends).
Assay: Phase 1 study of linaclotide DR2: PK in plasma and inspection of stool for intact tablets
Format: in vivo, human
Description: Delayed release “DR2” linaclotide tablets were administered in a double-blind, placebo-controlled Phase 1 study randomized healthy adult volunteers at dosing levels of 300 μg, 1200 μg, and 3000 μg or placebo for 7 days. Safety and tolerability were assessed at each dose and prior to escalation to the highest dose. Gastrointestinal pharmacodynamics (“PD”) assessments included change from baseline (CFB) in bowel movement frequency (Spontaneous bowel movement [SBM]/week) and stool consistency (Bristol stool form scale [BSFS]). To confirm release of linaclotide, all of the subject's stools were inspected for intact DR2 tablets.
PK assessments were conduct through blood determination of linaclotide and its metabolite in plasma, and feces for the determination of linaclotide and its metabolite in stool, were collected from all dosed subjects during the Clinic Period.

For `C[C@@H]1NC(=O)[C@@H]2CCCN2C(=O)[C@H](CC(N)=O)NC(=O)[C@@H]2CSSC[C@H](N)C(=O)N[C@H]3CSSC[C@H](NC1=O)C(=O)N[C@@H]([C@@H](C)O)C(=O)NCC(=O)N[C@H](C(=O)N[C@@H](Cc1ccc(O)cc1)C(=O)O)CSSC[C@H](NC(=O)[C@H](Cc1ccc(O)cc1)NC(=O)[C@H](CCC(=O)O)NC3=O)C(=O)N2` [Linaclotide, linaclotide] (H-CCEYCCNPACTGCY-OH; disulfide 1-6, 2-10, 5-13 (inferred)), the “systemic absorption / exposure” value (DR2 tablets orally for 7 days) was “minimally absorbed with negligible systemic exposure” and the detection in plasma (following 7 days of oral administration of DR2) was “Neither linaclotide nor its active metabolite were detected”.

From patent US20230346878A1, “Treatment of Abdominal Pain Associated with Diarrhea-Predominant Irritable Bowel Syndrome” (Ironwood Pharmaceuticals, Inc., priority 2019, published 2023)
